Test results taken from US20090149332A1, “METHODS FOR DETERMINING THE ACTIVITY OF ADAM-TS PROTEASES USING THIOPEPTOLIDES” (SANOFI-AVENTIS DEUTSCHLAND GMBH, priority 2005, published 2009).
[ ]: non-standard residue; d: D form. The star is where a group is joined. Dnp = O=[N+]([O-])c1ccc(*)c([N+](=O)[O-])c1; Mca = COc1ccc2c(CC(=O)*)cc(=O)oc2c1; Nva = CCC[C@H](N)C(=O)O; Dap = NC[C@H](N)C(=O)O; Mob = COc1ccc(C*)cc1

How the values were obtained:
Assay type in all cases: biochemical
[1] = tested on: ADAMTS-1; test: Colorimetric thiopeptolide conversion assay, Ellman's reaction with DTNB (Example 2); design: key: +: Increase in the optical signal was observed over 5 minutes; conditions: absorption at 415 nm for 5 min
Protocol: (§1) TNCB Buffer (see Example 1)
(§2) ADAMTS (Invitek Gesellschaft für Biotechnik & Biodesign mbH, Berlin, Germany) 5 μg of ADAMTS-1 were diluted with 2200 μL, and 5 μg of ADAMTS-4 were diluted with 600 μl of TNCB buffer.
(§3) 1) DTNB Solution (5,5′-dithiobis(2-nitrobenzoic Acid):
(§4) A 40 mM stock solution in DMSO was prepared:
(§5) Then 27.5 μL of DTNB stock solution were diluted with 522 μL of water.
(§6) A 100 mM stock solution in DMSO was prepared. For use, 55 μL of thiopeptilide stock solution were diluted with 500 μL of TNCB buffer.
(§7) Immediately before use, 550 μl of DTNB were mixed with 550 μl of thiopeptilide.
(§8) The measurements were carried out in 96-multiwell plates (half area plates, flat bottom, clear, polystyrene, No. 3695) (Corning Costar, Acton, USA).
(§9) 10 μL of enzyme solution and 10 μL of H2O were mixed, and the reaction was started by adding 10 μL of substrate solution.
(§10) Microtiter plate photometer: Molecular Devices Sunnyvale, USA. SpectraMax 190.

[2] = tested on: ADAMTS-4; test: as above; design: key: +: Increase in the optical signal was observed over 5 minutes; conditions: absorption at 415 nm for 5 min
Protocol: as §1, §2, §3, §4, §5, §6, §7, §8, §9, §10

[3] = target: T1, MMP-3cd (Homo sapiens, UniProt P08254); test: as above; design: key: +: Increase in the optical signal was observed over 5 minutes; conditions: absorption at 415 nm for 5 min
T1 construct: The catalytic domains of the human recombinant MMP-3 and MMP-8 protein, MMP-3cd and MMP-8cd; purchased Biomol International L. P. Pennsylvania, USA SE-109
T1 sequence (P08254 100-272 limits assumed): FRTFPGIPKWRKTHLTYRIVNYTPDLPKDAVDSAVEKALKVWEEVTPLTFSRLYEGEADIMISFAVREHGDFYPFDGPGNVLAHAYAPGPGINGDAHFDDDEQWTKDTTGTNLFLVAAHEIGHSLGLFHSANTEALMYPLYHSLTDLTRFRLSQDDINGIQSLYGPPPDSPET
Protocol: as §1, §3, §4, §5, §6, §7, §8, §9, §10

[4] = target: T2, MMP-8cd (Homo sapiens, UniProt P22894); test: as above; design: key: +: Increase in the optical signal was observed over 5 minutes; conditions: absorption at 415 nm for 5 min
T2 construct: The catalytic domains of the human recombinant MMP-3 and MMP-8 protein, MMP-3cd and MMP-8cd; purchased Biomol International L. P. Pennsylvania, USA SE-255
T2 sequence (P22894 100-262 limits assumed): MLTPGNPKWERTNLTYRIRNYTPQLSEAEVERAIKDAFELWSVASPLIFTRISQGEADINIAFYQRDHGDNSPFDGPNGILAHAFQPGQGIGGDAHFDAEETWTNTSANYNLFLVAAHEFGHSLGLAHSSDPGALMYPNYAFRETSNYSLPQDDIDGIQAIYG
Protocol: as §1, §3, §4, §5, §6, §7, §8, §9, §10

[5] = tested on: ADAMTS; test: Colorimetric thiopeptolide conversion assay (Example 2); conditions: Example 2, ADAMTS-1 and ADAMTS-4 tested
Protocol: as §1, §2, §3, §4, §5, §6, §7, §8, §9, §10

[6] = target: T1, MMP-3cd; test: Fluorometric substrate conversion assay (Comparative Example 1); design: key to Conversion of fluorimetric substrate by MMP-3 cd (increase in the optical signal): +: Increase in the optical signal was observed over 5 minutes; conditions: for Conversion of fluorimetric substrate by MMP-3 cd (increase in the optical signal): fluorescence measured for 5 minutes, λex/λem per substrate
Protocol: (§11) The catalytic domains of the human recombinant MMP-3 and MMP-8 protein, MMP-3cd and MMP-8cd, can be purchased from, for example, Biomol International L. P. Pennsylvania, USA; catalog number SE-109 and SE-255 respectively. The truncated forms of ADAM-TS1 and ADAM-TS4 protease can likewise be purchased from, for example, Invitek, Gesellschaft für Biotechnik & Biodesign mbH, Berlin, Germany, catalog number 30400402 and 30400102, respectively.
(§12) 100 mM tris(hydroxymethyl)aminomethane, adjusted to pH 7.5 with HCl-100
(§13) 10 mM substrates (see Table) in DMSO, immediately before use, 2 μL of the substrate stock solution were diluted with 130 μL of H2O.
(§14) MMP-3cd (2.3 μg/mL), MMP-8cd (0.6 μg/mL), ADAMTS-1 (2.3 μg/mL) and ADAMTS-4 (3.3 μg/mL) were diluted with TNCB buffer.
(§15) 10 μL of enzyme solution were mixed with 10 μL of H2O, and the reaction was started by adding 10 μL of substrate solution.
(§16) The fluorescence was measured in a TECAN Spectrafluor Plus fluorescence apparatus; Excitation/Emission (see Table). This entailed measuring the fluorescence for 5 minutes on each occasion.

[7] = target: T2, MMP-8cd; test: as above; design: key to Conversion of fluorimetric substrate by MMP-8 cd (increase in the optical signal): +: Increase in the optical signal was observed over 5 minutes; conditions: for Conversion of fluorimetric substrate by MMP-8 cd (increase in the optical signal): fluorescence measured for 5 minutes, λex/λem per substrate
Protocol: as §11, §12, §13, §14, §15, §16

Row | Molecule | Conversion of fluorimetric substrate by MMP-3 cd (increase in the optical signal) [6] | Conversion of fluorimetric substrate by MMP-8 cd (increase in the optical signal) [7] | other results
1 | CCOC(=O)CNC(=O)[C@H](CC(C)C)NC(=O)C(CC(C)C)SC(=O)CNC(=O)[C@H](CC(C)C)NC(=O)[C@@H]1CCCN1C(C)=O (stereo partly drawn) [Compound 1, Ac—P-L-G-[(S)-2-mercapto-4-methylpentanoyl]-L-G-OEt] | – | – | Conversion of colorimetric substrate in Ellman's reaction by ADAMTS-1 [1]: +; Conversion of colorimetric substrate in Ellman's reaction by ADAMTS-4 [2]: +; Conversion of colorimetric substrate in Ellman's reaction by MMP-3 cd [3]: +; Conversion of colorimetric substrate in Ellman's reaction by MMP-8 cd [4]: +; Conversion by ADAMTS (in words) [5]: converted
2 | CCCC(SC(=O)C(C)NC(=O)[C@H](CC(C)C)NC(=O)[C@@H]1CCCN1C(C)=O)C(=O)N[C@@H](Cc1c[nH]c2ccccc12)C(N)=O (stereo partly drawn) [Compound 2, Ac—P-L-A-[(S)-2-mercaptopentanoyl]-W—NH2] | – | – | Conversion of colorimetric substrate in Ellman's reaction by MMP-3 cd [3]: +; Conversion of colorimetric substrate in Ellman's reaction by MMP-8 cd [4]: +; Conversion by ADAMTS (in words) [5]: not converted
3 | (7-methoxycoumarin-4-yl)acetyl-Pro-Leu-Gly-Leu-3-(2′,4′-dinitro-phenyl)-L-2,3-diaminopropionyl-Ala-Arg-NH2 [Mca-P-L-G-L-Dap(Dnp)-A-R—NH2] | + | + | Conversion with the protease MMP-3 (in words) ([6]; see experimental section): possible to convert; Conversion with the protease MMP-8 (in words) ([7]; see experimental section): possible to convert
4 | Dnp-P-L-G-L-W-A-R—NH2 (Dnp-PLGLWAR-NH2; SMILES CC(C)C[C@H](NC(=O)CNC(=O)[C@H](CC(C)C)NC(=O)[C@@H]1CCCN1c1ccc([N+](=O)[O-])cc1[N+](=O)[O-])C(=O)N[C@@H](Cc1c[nH]c2ccccc12)C(=O)N[C@@H](C)C(=O)N[C@@H](CCCNC(=N)N)C(N)=O) [fluorimetric MMP substrate, Bachem M-1855] | + | – | –
5 | Dnp-P-β-cyclohexyl-A-G-C(Me)-H-A-K—(N-Me-Abz)-NH2 | + | + | –
6 | Mca-GKPILFFRLK(Dnp)R-NH2 | + | – | –
7 | Mca-P-β-cyclohexyl-A-G-Nva-H-A-Dpa-NH2 | + | + | –
8 | Mca-PLAC(Mob)WAR[Dap](Dnp)-NH2 | + | + | –
9 | Mca-PLAQAV[Dap](Dnp)RSSSR-NH2 | + | – | –
10 | Mca-PLA[Nva][Dap](Dnp)AR-NH2 | + | + | –
11 | Mca-RPLALWR[Dap](Dnp)-NH2 | + | + | –
12 | Mca-R—P—K—P—V-E-Nval-W—R—K-(Dnp)-NH2 | + | – | –
13 | Mca-R—P—K—P—Y-A-Nva-Met-K(Dnp)-NH2 | + | + | –
14 | NBD-eAhx-R—P—K—P-L-A-Nva-W—K(DMACA)-NH2 | + | + | –
